Experiments:
Format in all cases: cell-based
[1] = target: T1, CXCR3 (Homo sapiens, UniProt P49682); test: Chemotaxis assay IP10, L1.2 recombinant cells expressing hCXCR3; settings: L1.2 hCXCR3 cells, IP10 around 0.3 nM, 4 hours
T1 sequence (P49682 1-368): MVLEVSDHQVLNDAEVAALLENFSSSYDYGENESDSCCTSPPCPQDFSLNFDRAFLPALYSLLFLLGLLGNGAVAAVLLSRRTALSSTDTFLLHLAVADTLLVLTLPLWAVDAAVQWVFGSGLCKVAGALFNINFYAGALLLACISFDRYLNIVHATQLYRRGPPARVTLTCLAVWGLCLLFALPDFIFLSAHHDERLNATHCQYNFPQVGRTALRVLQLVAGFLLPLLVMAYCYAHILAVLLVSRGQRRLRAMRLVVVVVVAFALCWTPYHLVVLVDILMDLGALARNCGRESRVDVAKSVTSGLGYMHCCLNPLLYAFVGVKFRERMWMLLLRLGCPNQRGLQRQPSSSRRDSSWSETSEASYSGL
Protocol: (§1) Human CXCR3 cDNA was amplified by PCR from a human cells cDNA library (Clontech) and subcloned into pcDNA3.1 (Invitrogen). Murine pre-B L1.2 cells were transfected with hCXCR3-pcDNA3.1 and were grown at 37° C., 5% CO2 in RPMI 1640 medium (Invitrogen, USA) supplemented with 5% heat inactivated fetal calf serum (Cancerra, Australia), 2 mM glutamine (Invitrogen), 50 units ml−1 penicillin, 50 μml−1 streptomycin. Stable transfectant clonal populations were selected using 800 μg/ml geneticin.
L1.2 recombinant cells expressing the receptor hCXCR3 were maintained in culture in RPMI 1640 (invitrogen), 5% Foetal Bovine Serum (invitrogen), 2 mM glutamine(invitrogen), 50 u/ml penicillin/streptomycin (invitrogen), at 37° C.-5% CO2—in an H2O saturated incubator. In order to stimulate the expression of the receptor, cells were incubated overnight with 5 mM butyric acid (Sigma)
This mix of cells/compounds was then incubated at 37° C.-5% CO2—in an H2O saturated incubator during 30 minutes. Cells were then dispensed as a drop on each corresponding wells of the chemotaxis system. Cell migration was then induced at 37° C.-5% CO2—in an H2O incubator during 4 hours. Filters were then removed and cells that had migrated were transferred in a black plate (Costar). The plates were stored overnight at −80° C. Cell migration ratio was calculated using the cyquant dye (Molecular Probes-C7026).

[2] = target: T1, CXCR3; test: CXCR3 Ca2+ mobilization (FLIPR), stable hCXCR3-CHO cell line, I-TAC stimulated; set-up: host or cells: CHO cells stably expressing hCXCR3; settings: hCXCR3-CHO cells, I-TAC 100 nM stimulated Ca2+ response; read-out: Ca-ITAC
Procedure, shortened: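 CHO cells stably expressing hCXCR3, grown 18 hours after plating, loaded with calcium indicator dye 60 minutes; compounds equilibrated 20 minutes at room temperature. Fluorescence change evoked by 100 nM I-TAC read on FLIPR; activity expressed as percent of I-TAC response without compound (100%).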

[3] = target: T1, CXCR3; test: Chemotaxis assay ITAC (CXCL11), L1.2-CXCR3 cells; set-up: expressed in transfected cells; settings: 1 nM CXCL11 (I-TAC), 4 hours
Protocol: as §1
L1.2-CXCR3 cells were grown for 24 hours at 0.5×10^6 cells/ml in chemotaxis medium containing 5 mM butyric acid (Sigma). Compounds were on one hand mixed with 1 nM of CXCL11 (I-TAC) in phenol-red free RPMI 1640 (invitrogen) supplemented with 5% fetal bovine serum in presence of 1% DMSO. The CXCL11/compounds mixture was then added to lower chambers of chemotaxis 96 well microplates (neuroprobe), and framed filters ([…] pore size) were put on top of the lower chambers. Compounds were on the other hand mixed with L1.2 CXCR3 cells and incubated in chemotaxis medium at 1.5×10^6 cells/ml in presence of 1% DMSO at 37° C., 5% CO2 for 30 minutes. Cells/compounds mixture was then added on top of the frame filters and migration was performed at 37° C., 5% CO2 for 4 hours. The number of migrated cells in the bottom chamber was determined using the CyQuant GR dye (Molecular Probe), according to the manufacturer.

SMILES | IC50 [1] | IC50 [2] | IC50 [3]
O=C(NCc1cccc(Cl)c1)c1ccc(CN(Cc2ccccc2)S(=O)(=O)c2ccc(Cl)cc2)cc1 [Example 1, 4-({benzyl[(4-chlorophenyl)sulfonyl]amino}methyl)-N-(3-chlorobenzyl)benzamide] | 1.29 µM |  | 
O=C(NC[C@@H]1CCCO1)c1ccc(CN(Cc2ccccc2)S(=O)(=O)c2ccc(Cl)cc2)cc1 [Example 3, 4-({benzyl[(4-chlorophenyl)sulfonyl]amino}methyl)-N-[(2S)-tetrahydrofuran-2-ylmethyl]benzamide] | 2.27 µM |  | 
O=C(NCCc1cccc([N+](=O)[O-])c1)c1ccc(CN(Cc2ccccc2)S(=O)(=O)c2ccc(Cl)cc2)cc1 [Example 4, 4-({benzyl[(4-chlorophenyl)sulfonyl]amino}methyl)-N-[2-(3-nitrophenyl)ethyl]benzamide] | 2.45 µM |  | 
COc1ccc(S(=O)(=O)N(Cc2ccc(C(=O)NCc3cccc(Cl)c3)cc2)Cc2cccnc2)cc1 [Example 9, N-(3-chlorobenzyl)-4-{[[(4-methoxyphenyl)sulfonyl](pyridin-3-ylmethyl)amino]methyl}benzamide] | 1.15 µM |  | 
COc1ccc(S(=O)(=O)NC(=O)c2ccc(CN(Cc3ccccn3)S(=O)(=O)c3ccc(Cl)cc3)cc2)cc1 [Example 14, 4-{[[(4-chlorophenyl)sulfonyl](pyridin-2-ylmethyl)amino]methyl}-N-[(4-methoxyphenyl)sulfonyl]benzamide] | 3.87 µM |  | 
O=C(NS(=O)(=O)Cc1cccc([N+](=O)[O-])c1)c1ccc(CN(Cc2ccccc2)S(=O)(=O)c2ccc(Cl)cc2)cc1 [Example 15, 4-({benzyl[(4-chlorophenyl)sulfonyl]amino}methyl)-N-[(3-nitrobenzyl)sulfonyl]benzamide] | 2.42 µM |  | 
O=S(=O)(c1ccc(Cl)cc1)N(Cc1ccc(-c2nnc(O)o2)cc1)Cc1ccccn1 [Example 19, 4-chloro-N-[4-(5-hydroxy-1,3,4-oxadiazol-2-yl)benzyl]-N-(pyridin-2-ylmethyl)benzene sulfonamide] | 0.695 µM |  | 
O=S(=O)(c1ccc(Cl)cc1)N(Cc1ccc(-c2nnn[nH]2)cc1)Cc1ccccc1F [Example 20, 4-chloro-N-(2-fluorobenzyl)-N-[4-(1H-tetrazol-5-yl)benzyl]benzene sulfonamide] | 0.47 µM |  | 
O=S(=O)(c1ccc(Cl)cc1)N(Cc1ccc(-c2nnn[nH]2)cc1)Cc1cccc(Cl)c1 [Example 21, 4-chloro-N-(3-chlorobenzyl)-N-[4-(1H-tetrazol-5-yl)benzyl]benzenesulfonamide] | 1.29 µM |  | 
O=S(=O)(c1ccc(Cl)cc1)N(Cc1ccc(F)cc1)Cc1ccc(-c2nnn[nH]2)cc1 [Example 22, 4-chloro-N-(4-fluorobenzyl)-N-[4-(1H-tetrazol-5-yl)benzyl]benzenesulfonamide] | 2.56 µM |  | 
COc1cccc(CN(Cc2ccc(-c3nnn[nH]3)cc2)S(=O)(=O)c2ccc(Cl)cc2)c1 [Example 23, 4-chloro-N-(3-methoxybenzyl)-N-[4-(1H-tetrazol-5-yl)benzyl]benzene sulfonamide] | 1.46 µM |  | 
COc1ccc(CN(Cc2ccc(-c3nnn[nH]3)cc2)S(=O)(=O)c2ccc(Cl)cc2)cc1 [Example 24, 4-Chloro-N-(4-methoxy-benzyl)-N-[4-(1H-tetrazol-5-yl)-benzyl]-benzenesulfonamide] | 0.885 µM |  | 
O=S(=O)(c1ccc(Cl)cc1)N(Cc1ccc(Cl)cc1)Cc1ccc(-c2nnn[nH]2)cc1 [Example 25, 4-chloro-N-(4-chlorobenzyl)-N-[4-(1H-tetrazol-5-yl)benzyl]benzenesulfonamide] | 0.882 µM |  | 
O=C(NCC1CC1)c1ccc(CN(Cc2ccccc2F)S(=O)(=O)c2ccc(Cl)cc2)cc1 [Example 29, 4-{[(4-Chloro-benzenesulfonyl)-(2-fluoro-benzyl)-amino]-methyl}-N-cyclopropyl methyl benzamide] | 0.51 µM | 1 µM | 
O=C(NCC1CC1)c1ccc(CN(Cc2ccccc2)S(=O)(=O)c2ccc(Cl)nc2)cc1 [Example 37, 4-{[benzyl({[2-chloropyridine)l]sulfonyl)amino]methyl}-N(cyclopropylmethyl)benzamide] | 0.328 µM | 3.35 µM | 
N#Cc1ccc(S(=O)(=O)N(Cc2ccc(C(=O)NCC3CC3)cc2)Cc2ccccn2)cc1 [Example 43] | 0.36 µM | 4.75 µM | 
N#Cc1ccc(S(=O)(=O)N(Cc2ccc(-c3nnn[nH]3)cc2)Cc2ccccn2)cc1 [Example 47, 4-cyano-N-(pyridin-2-ylmethyl)-N-[4-(2H-tetrazol-5-yl)benzyl]benzenesulfonamide] | 0.233 µM | 1.16 µM | 
O=C(NS(=O)(=O)Cc1cccc([N+](=O)[O-])c1)c1ccc(CN(Cc2ccccn2)S(=O)(=O)c2ccc(Cl)cc2)cc1 [Example 50, N-(3-nitrophenylmethanesulfonyl)-4-{[[(4-chlorophenyl)sulfonyl](pyridin-2-yl-methyl)amino]methyl}benzamide] | 0.207 µM | 0.175 µM | 
O=C(NS(=O)(=O)c1cccc(F)c1)c1ccc(CN(Cc2ccccn2)S(=O)(=O)c2ccc(Cl)cc2)cc1 [Example 51, N-(3-fluorobenzenesulfonyl)-4-{[[(4-chlorophenyl)sulfonyl](pyridin-2-yl-methyl)amino]methyl}benzamide] | 0.339 µM | 0.131 µM | 
CS(=O)(=O)CCCS(=O)(=O)NC(=O)c1ccc(CN(Cc2ccccn2)S(=O)(=O)c2ccc(Cl)cc2)cc1 [Example 53, N-(1-methylsulfonyl-3-propylsulfonyl)-4-{[[(4-chlorophenyl)sulfonyl](pyridin-2-yl-methyl)amino]methyl}benzamide] | 1.32 µM | 1.7 µM | 
Cc1noc(C)c1CN(Cc1ccc(-c2nnn[nH]2)cc1)S(=O)(=O)c1ccc(Cl)cc1 [Example 58, 4-chloro-N-[(3,5-dimethylisoxazol-4-yl)methyl]-N-[4-(2H-tetrazol-5-yl)benzyl]benzene sulfonamide] | 1.43 µM |  | 
O=S(=O)(c1ccc(Cl)cc1)N(Cc1ccc(-c2nnn[nH]2)cc1)Cc1ncco1 [Example 59, 4-chloro-N-(1,3-oxazol-2-ylmethyl)-N-[4-(2H-tetrazol-5-yl)benzyl]benzene sulfonamide] | 3.67 µM |  | 
O=C(Nc1ccc(CN(Cc2ccccn2)S(=O)(=O)c2ccc(Cl)cc2)cc1)C(O)c1ccccc1 (stereo not drawn) [Example 170] |  | 0.4 µM | 0.05 µM
O=S(=O)(c1ccc(Cl)cc1)N(Cc1ccc(-c2nnn[nH]2)cc1)C1CCc2cc(Cl)ccc21 (stereo not drawn) [Example 179] |  | 0.35 µM | 8.86 µM
NC(C(=O)Nc1ccc(CN(Cc2ccccn2)S(=O)(=O)c2ccc(Cl)cc2)cc1)c1ccccc1 (stereo not drawn) [Example 181] |  | 0.15 µM | 0.094 µM
CC(=O)NC(C(=O)Nc1ccc(CN(Cc2ccccn2)S(=O)(=O)c2ccc(Cl)cc2)cc1)c1ccccc1 (stereo not drawn) [Example 185] |  | 0.3 µM | 0.03 µM
CCOc1ccc(S(=O)(=O)N(Cc2ccc(C(=O)OC)c(OC)c2)Cc2ccccn2)cc1 [Example 188] |  | 10.5 µM | 3.8 µM
CCOc1ccc(S(=O)(=O)N(Cc2ccc(C(=O)NC3(c4ccccc4)CC3)c(OC)c2)Cc2ccccn2)cc1 [Example 189] |  | 2 µM | 0.28 µM
N#Cc1cccc(CN(Cc2ccccn2)S(=O)(=O)c2ccc(Cl)cc2)c1 [Example 195] |  | 4.2 µM | 6.81 µM
COC(=O)[C@@H](NC(=O)c1ccc(CN(Cc2ccccn2)S(=O)(=O)c2ccc(Cl)cc2)cc1)c1ccccc1 [Example 342] |  | 0.8 µM | 0.054 µM

From patent publication US20110028509A1, “Sulfonamides” (MERCK SERONO SA, priority 2008, published 2011)
